From patent publication US20210254056A1, “IDENTIFICATION AND TARGETED MODULATION OF GENE SIGNALING NETWORKS” (CAMP4 THERAPEUTICS CORPORATION, priority 2017, published 2021)

Tested on: hepatocytes
Test: RNA-seq of hepatocytes treated with Phase III failure compounds
Conditions: hepatocytes
Description: RNA-seq was performed to determine the effects of the compounds on hepatocytes.
Significance was determined by the criteria of FPKM≥0.5, a log 2(fold-change)≥1, and a […].

Which results are given for `CCC(CC)[C@H](NC(C)=O)[C@@H]1[C@H](O)[C@@H](C(=O)O)C[C@H]1NC(=N)N.O.O.O` [peramivir (trihydrate), peramivir]?
RNA-seq results: MCCC1 expression (gene MCCC1): −0.27; RNA-seq results: MCCC2 expression (gene MCCC2): −0.31; RNA-seq results: MCM6 expression (gene MCM6): −0.34; RNA-seq results: MEN1 expression (gene MEN1): 0.18; RNA-seq results: MET expression (gene MET): −0.27; RNA-seq results: MGAT2 expression (gene MGAT2): −0.09; RNA-seq results: MKS1 expression (gene MKS1): 0.23; RNA-seq results: MLH1 expression (gene MLH1): −0.18; RNA-seq results: MMAA expression (gene MMAA): −0.25; RNA-seq results: MMAB expression (gene MMAB): −0.09; RNA-seq results: MMADHC expression (gene MMADHC): −0.38; RNA-seq results: MOCS1 expression (gene MOCS1): 0.03; RNA-seq results: MOGAT2 expression (gene MOGAT2): 0.66; RNA-seq results: MOGS expression (gene MOGS): 0.33; RNA-seq results: MPZ expression (gene MPZ): 0.37; RNA-seq results: MRPL3 expression (gene MRPL3): −0.47; RNA-seq results: MTHFR expression (gene MTHFR): 0.37; RNA-seq results: MTM1 expression (gene MTM1): −0.29; RNA-seq results: MTO1 expression (gene MTO1): −0.13; RNA-seq results: MTR expression (gene MTR): 0.10; RNA-seq results: MTRR expression (gene MTRR): −0.43; RNA-seq results: MTTP expression (gene MTTP): −0.18; RNA-seq results: MVK expression (gene MVK): 0.07; RNA-seq results: MYH9 expression (gene MYH9): 0.20; RNA-seq results: MYO5B expression (gene MYO5B): −0.08; RNA-seq results: NAGS expression (gene NAGS): 0.31; RNA-seq results: NARS2 expression (gene NARS2): −0.42; RNA-seq results: NAT2 expression (gene NAT2): −0.40; RNA-seq results: NBAS expression (gene NBAS): −0.22; RNA-seq results: NCF2 expression (gene NCF2): −0.20; RNA-seq results: NEK1 expression (gene NEK1): −0.22; RNA-seq results: NEK8 expression (gene NEK8): 0.47; RNA-seq results: NEU1 expression (gene NEU1): −0.25; RNA-seq results: NFKB2 expression (gene NFKB2): 0.30; RNA-seq results: NFKBIA expression (gene NFKBIA): −0.19; RNA-seq results: NFU1 expression (gene NFU1): −0.52; RNA-seq results: NGLY1 expression (gene NGLY1): −0.40; RNA-seq results: NHP2 expression (gene NHP2): 0.65; RNA-seq results: NME1 expression (gene NME1): 0.00; RNA-seq results: NOD2 expression (gene NOD2): 0.30; RNA-seq results: NOP10 expression (gene NOP10): 0.03; RNA-seq results: NOTCH1 expression (gene NOTCH1): 0.23; RNA-seq results: NOTCH2 expression (gene NOTCH2): 0.01; RNA-seq results: NPC1 expression (gene NPC1): −0.09; RNA-seq results: NR1H4 expression (gene NR1H4): 0.00; RNA-seq results: NUBPL expression (gene NUBPL): −0.11; RNA-seq results: NUDT7 expression (gene NUDT7): −0.70; RNA-seq results: NUDT12 expression (gene NUDT12): −0.32; RNA-seq results: OAT expression (gene OAT): −0.40; RNA-seq results: OPA3 expression (gene OPA3): 0.14; RNA-seq results: OTC expression (gene OTC): −0.33; RNA-seq results: PAF1 expression (gene PAF1): −0.04; RNA-seq results: PAH expression (gene PAH): −0.22; RNA-seq results: PANK2 expression (gene PANK2): −0.22; RNA-seq results: PAOX expression (gene PAOX): −0.04; RNA-seq results: PC expression (gene PC): 0.27; RNA-seq results: PCCA expression (gene PCCA): −0.23; RNA-seq results: PCK2 expression (gene PCK2): 0.18; RNA-seq results: PCSK9 expression (gene PCSK9): 0.46; RNA-seq results: PCYT1A expression (gene PCYT1A): −0.07; RNA-seq results: PDGFRA expression (gene PDGFRA): −0.06; RNA-seq results: PDP1 expression (gene PDP1): −0.30; RNA-seq results: PEPD expression (gene PEPD): 0.03; RNA-seq results: PEX11A expression (gene PEX11A): −0.27; RNA-seq results: PEX12 expression (gene PEX12): −0.20; RNA-seq results: PEX14 expression (gene PEX14): 0.19; RNA-seq results: PFKM expression (gene PFKM): 0.45; RNA-seq results: PGM1 expression (gene PGM1): −0.24; RNA-seq results: PHGDH expression (gene PHGDH): 0.38; RNA-seq results: PHKA1 expression (gene PHKA1): −0.18; RNA-seq results: PHKA2 expression (gene PHKA2): 0.11; RNA-seq results: PHKB expression (gene PHKB): −0.39; RNA-seq results: PHYH expression (gene PHYH): −0.26; RNA-seq results: PIEZO1 expression (gene PIEZO1): 0.30; RNA-seq results: PIGA expression (gene PIGA): −0.37; RNA-seq results: PIGM expression (gene PIGM): −0.35; RNA-seq results: PKD1 expression (gene PKD1): 0.61; RNA-seq results: PKD2 expression (gene PKD2): 0.28; RNA-seq results: PKHD1 expression (gene PKHD1): 0.34; RNA-seq results: PKLR expression (gene PKLR): 0.35; RNA-seq results: PLA2G6 expression (gene PLA2G6): 0.59; RNA-seq results: PLEKHM1 expression (gene PLEKHM1): 0.10; RNA-seq results: PMVK expression (gene PMVK): 0.39; RNA-seq results: PNP (gene PNP): −0.40; RNA-seq results: PNPLA2 (gene PNPLA2): 0.02; RNA-seq results, POLD1 (gene POLD1): 0.24; RNA-seq results: POLD1 (gene POLD1): 0.30; RNA-seq results, POLG2 (gene POLG2): 0.19; RNA-seq results: POLG2 (gene POLG2): 0.22; RNA-seq results, POLG (gene POLG): 0.03; RNA-seq results: POLG (gene POLG): 0.10; RNA-seq results, POR (gene POR): 0.82; RNA-seq results: POR (gene POR): 0.16; RNA-seq results, PPAPDC2 (gene PPAPDC2): −0.01; RNA-seq results: PPAPDC2 (gene PPAPDC2): −0.14; RNA-seq results, PPARA (gene PPARA): 0.09; RNA-seq results: PPARA (gene PPARA): −0.14; RNA-seq results, PPARG (gene PPARG): 0.16; RNA-seq results: PPARG (gene PPARG): −0.47; RNA-seq results, PPM1K (gene PPM1K): 0.13; RNA-seq results: PPM1K (gene PPM1K): −0.24; RNA-seq results, PRKCD (gene PRKCD): 0.03; RNA-seq results: PRKCD (gene PRKCD): 0.06; RNA-seq results, PRODH (gene PRODH): 0.2; RNA-seq results: PRODH (gene PRODH): −0.14; RNA-seq results, PROS1 (gene PROS1): −0.19; RNA-seq results: PROS1 (gene PROS1): −0.20; RNA-seq results, PROZ (gene PROZ): 0.28; RNA-seq results: PROZ (gene PROZ): 0.10; RNA-seq results, PSAT1 (gene PSAT1): 0.26; RNA-seq results: PSAT1 (gene PSAT1): −0.18; RNA-seq results, PSMB8 (gene PSMB8): 0.02; RNA-seq results: PSMB8 (gene PSMB8): 0.08; RNA-seq results, PSPH (gene PSPH): 0.05; RNA-seq results: PSPH (gene PSPH): −0.12; RNA-seq results, PTCH1 (gene PTCH1): 0.28; RNA-seq results: PTCH1 (gene PTCH1): 0.20; RNA-seq results, PTRF (gene PTRF): −0.15; RNA-seq results: PTRF (gene PTRF): 0.25
